The record followed here is patent publication US20240067693A1, “POLYPEPTIDES AND USES THEREOF” (MEDIMMUNE LIMITED, priority 2020, published 2024).

The target in assay [1] is T1, human calcitonin receptor (hCTR) (Homo sapiens, UniProt P30988).
T1 construct: expressed in transfected cells
T1 sequence (P30988 25-474): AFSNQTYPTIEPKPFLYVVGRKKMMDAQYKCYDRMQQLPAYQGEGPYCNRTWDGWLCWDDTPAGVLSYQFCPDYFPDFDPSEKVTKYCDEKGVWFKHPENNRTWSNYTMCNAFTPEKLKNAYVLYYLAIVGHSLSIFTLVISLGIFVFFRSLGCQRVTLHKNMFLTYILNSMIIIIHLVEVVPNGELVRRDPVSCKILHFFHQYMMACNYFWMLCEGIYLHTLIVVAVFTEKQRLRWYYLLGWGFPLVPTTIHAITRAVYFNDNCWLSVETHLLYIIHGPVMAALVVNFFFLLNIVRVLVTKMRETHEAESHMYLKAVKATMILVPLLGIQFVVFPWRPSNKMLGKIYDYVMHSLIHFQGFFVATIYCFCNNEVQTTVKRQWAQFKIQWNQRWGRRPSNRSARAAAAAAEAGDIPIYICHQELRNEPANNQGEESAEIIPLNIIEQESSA
The assay can be described thus: cAMP production in 1321N1 cells with stable recombinant expression of human calcitonin receptor (hCTR). The assay is classed as cell-based. To be noted: cAMP, 1321N1 cells, assay buffer with 0.1% BSA; read-out: EC50 (pM) hCTR. A digest of the protocol:
(§1)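 Receptor-expressing cells (human receptors in 1321N1, rat receptors in HEK) incubated 30 min at room temperature with peptide in HBSS/HEPES pH 7.4, 0.1% BSA, 0.5 mM IBMX. cAMP read by HTRF; EC50 from 4-parameter fit as % of maximal amylin or calcitonin response.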

Assay [2] deals with T2, human amylin receptor (calcitonin receptor co-expressed with receptor activity modifying protein, RAMP3) (hAMYR3) (Homo sapiens, UniProt O60896+P30988).
T2 construct: expressed in transfected cells
T2 sequence (P30988 25-474): T1 sequence (P30988 25-474)
T2 sequence (O60896 24-148 partner): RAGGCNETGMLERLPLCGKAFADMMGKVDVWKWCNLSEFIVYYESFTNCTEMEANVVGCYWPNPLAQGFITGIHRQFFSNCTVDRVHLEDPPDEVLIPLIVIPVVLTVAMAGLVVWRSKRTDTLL
The assay can be described thus: cAMP production in 1321N1 cells with stable recombinant expression of human amylin receptor (hAMYR3). The conditions noted are these: for Ratio (selectivity hAMYR vs hCTR, ratio of EC50 values at the two receptors): EC50 hCTR / EC50 hAMYR3; for EC50: cAMP, 1321N1 cells, assay buffer with 0.1% BSA, read-out: EC50 (pM) hAMYR3. The assay is classed as cell-based. An outline of the steps: as §1
Background: Changes in cAMP serve as a functional read-out for many G protein-coupled receptors.

A word on the EC50: it is the concentration needed to bring the measured effect to its halfway point.

Molecules are shown by their SMILES. Numbered stars: 1 amine (or outer) side, 2 acyl side, 3 side chain; on linkers, the order of the positions; unused ones are H or OH. Bridge positions count the residues as written; N and C are the ends. Square brackets hold non-standard residues; d marks the D form. Side chains are listed from the residue outwards. Peptide text beside a SMILES is read from it. * marks the point of attachment. C18 diacid = O=C(O)CCCCCCCCCCCCCCCCC(=O)*; γGlu = O=C(O)[C@H](CCC(=O)[*:2])N[*:1]; Aib = CC(C)(N)C(=O)O

As to `CC[C@H](C)[C@H](NC(=O)[C@@H]1CCCN1C(=O)CNC(=O)[C@H](Cc1ccccc1)NC(=O)[C@H](CC(N)=O)NC(=O)C(C)(C)NC(=O)[C@H](CO)NC(=O)[C@H](CO)NC(=O)[C@H](Cc1c[nH]cn1)NC(=O)[C@@H](NC(=O)[C@@H](CC(C)C)NC(=O)[C@H](Cc1ccccc1)NC(=O)[C@H](CC(N)=O)NC(=O)[C@H](C)NC(=O)[C@H](CC(C)C)NC(=O)[C@H](CCCNC(=N)N)NC(=O)[C@H](CCC(N)=O)NC(=O)[C@@H](NC(=O)[C@H](C)NC(=O)[C@@H]1CSSC[C@H](NC(=O)[C@@H](N)CCCCNC(=O)CC[C@H](NC(=O)CCCCCCCCCCCCCCCCC(=O)O)C(=O)O)C(=O)N[C@@H](CC(N)=O)C(=O)N[C@@H]([C@@H](C)O)C(=O)N[C@@H](C)C(=O)N[C@@H]([C@@H](C)O)C(=O)N1)[C@@H](C)O)C(C)C)C(=O)N[C@@H](CC(C)C)C(=O)N1CCC[C@H]1C(=O)N1CCC[C@H]1C(=O)N[C@H](C(=O)N[C@@H](CC(N)=O)C(=O)N[C@H](C(=O)NCC(=O)N[C@@H](CO)C(=O)N[C@@H](CC(N)=O)C(=O)N[C@H](C(=O)N[C@@H](Cc1ccc(O)cc1)C(N)=O)[C@@H](C)O)C(C)C)[C@@H](C)O` [Peptide 62, K(γE-C18diacid)[CNTATC]ATQRLANF(dL)VHSS(Aib)NFGPILPPTNVGSNTY-amide] (H-K([γGlu-C18 diacid])CNTATCATQRLANF[dL]VHSS[Aib]NFGPILPPTNVGSNTY-NH2; disulfide 2-7), the concentration giving a half-maximal response (EC50) turned out to be 7250 pM in assay [1] and 167 pM in assay [2]. In assay [2], the “Ratio (selectivity hAMYR vs hCTR, ratio of EC50 values at the two receptors)” value was found to be 43.

With `CC[C@H](C)[C@H](NC(=O)[C@@H]1CCCN1C(=O)CNC(=O)[C@H](Cc1ccccc1)NC(=O)[C@H](CC(N)=O)NC(=O)[C@H](CC(N)=O)NC(=O)[C@H](CO)NC(=O)[C@H](CO)NC(=O)[C@H](Cc1c[nH]cn1)NC(=O)C(C)(C)NC(=O)[C@H](CC(C)C)NC(=O)[C@H](Cc1ccccc1)NC(=O)[C@H](CC(N)=O)NC(=O)[C@H](C)NC(=O)[C@H](CC(C)C)NC(=O)[C@H](CCCNC(=N)N)NC(=O)[C@H](CCC(N)=O)NC(=O)[C@@H](NC(=O)[C@H](C)NC(=O)[C@@H]1CSSC[C@H](NC(=O)[C@H](CCCCN)NC(=O)[C@@H](N)CCCCNC(=O)CC[C@H](NC(=O)CCCCCCCCCCCCCCCCC(=O)O)C(=O)O)C(=O)N[C@@H](CC(N)=O)C(=O)N[C@@H]([C@@H](C)O)C(=O)N[C@@H](C)C(=O)N[C@@H]([C@@H](C)O)C(=O)N1)[C@@H](C)O)C(=O)N[C@@H](CC(C)C)C(=O)N1CCC[C@H]1C(=O)N1CCC[C@H]1C(=O)N[C@H](C(=O)N[C@@H](CC(N)=O)C(=O)N[C@H](C(=O)NCC(=O)N[C@@H](CO)C(=O)N[C@@H](CCC(=O)O)C(=O)N[C@H](C(=O)N[C@@H](Cc1ccc(O)cc1)C(N)=O)[C@@H](C)O)C(C)C)[C@@H](C)O` [Peptide 142] (H-K([γGlu-C18 diacid])KCNTATCATQRLANFL[Aib]HSSNNFGPILPPTNVGSETY-NH2; disulfide 3-8; N-terminus assumed), in assay [1], the concentration giving a half-maximal response (EC50) was 2270 pM. Moreover, in assay [2], the “Ratio (selectivity hAMYR vs hCTR, ratio of EC50 values at the two receptors)” value is given as 3.1 and the EC50 was found to be 730 pM.

In the case of `CC[C@H](C)[C@H](NC(=O)[C@@H]1CCCN1C(=O)CNC(=O)[C@H](Cc1ccccc1)NC(=O)[C@H](CC(N)=O)NC(=O)[C@H](CC(N)=O)NC(=O)[C@H](CO)NC(=O)[C@H](CO)NC(=O)[C@H](Cc1c[nH]cn1)NC(=O)C(C)(C)NC(=O)[C@H](CC(C)C)NC(=O)[C@H](Cc1ccccc1)NC(=O)[C@H](CC(N)=O)NC(=O)[C@H](C)NC(=O)[C@H](CC(C)C)NC(=O)[C@H](CCCNC(=N)N)NC(=O)[C@H](CCC(N)=O)NC(=O)[C@@H](NC(=O)[C@H](C)NC(=O)[C@@H]1CSSC[C@H](NC(=O)[C@H](CCCCN)NC(=O)[C@@H](N)CCCCNC(=O)CC[C@H](NC(=O)CCCCCCCCCCCCCCCCC(=O)O)C(=O)O)C(=O)N[C@@H](CC(N)=O)C(=O)N[C@@H]([C@@H](C)O)C(=O)N[C@@H](C)C(=O)N[C@@H]([C@@H](C)O)C(=O)N1)[C@@H](C)O)C(=O)N[C@@H](CC(C)C)C(=O)N1CCC[C@H]1C(=O)N1CCC[C@H]1C(=O)N[C@H](C(=O)N[C@@H](CC(N)=O)C(=O)N[C@H](C(=O)NCC(=O)NC(C)(C)C(=O)N[C@@H](CC(N)=O)C(=O)N[C@H](C(=O)N[C@@H](Cc1ccc(O)cc1)C(N)=O)[C@@H](C)O)C(C)C)[C@@H](C)O` [Peptide 101, K(γE-C18diacid)K[CNTATC]ATQRLANFL(Aib)HSSNNFGPILPPTNVG(Aib)NTY-amide] (H-K([γGlu-C18 diacid])KCNTATCATQRLANFL[Aib]HSSNNFGPILPPTNVG[Aib]NTY-NH2; disulfide 3-8; N-terminus assumed), the EC50 in assay [1] came out at 441 pM; in assay [2], 177 pM. For the same molecule, the “Ratio (selectivity hAMYR vs hCTR, ratio of EC50 values at the two receptors)” value in assay [2] worked out at 2.

As for `CC[C@H](C)[C@H](NC(=O)[C@@H]1CCCN1C(=O)CNC(=O)[C@H](Cc1ccccc1)NC(=O)[C@H](CC(N)=O)NC(=O)[C@H](CC(N)=O)NC(=O)[C@H](CO)NC(=O)[C@H](CO)NC(=O)[C@H](Cc1c[nH]cn1)NC(=O)C(C)(C)NC(=O)[C@H](CC(C)C)NC(=O)[C@H](Cc1ccccc1)NC(=O)[C@H](CC(N)=O)NC(=O)[C@H](C)NC(=O)[C@H](CC(C)C)NC(=O)[C@H](CCCNC(=N)N)NC(=O)[C@H](CCC(N)=O)NC(=O)[C@@H](NC(=O)[C@H](C)NC(=O)[C@@H]1CSSC[C@H](NC(=O)[C@H](CCCCN)NC(=O)[C@@H](N)CCCCNC(=O)CC[C@H](NC(=O)CCCCCCCCCCCCCCCCC(=O)O)C(=O)O)C(=O)N[C@@H](CC(N)=O)C(=O)N[C@@H]([C@@H](C)O)C(=O)N[C@@H](C)C(=O)N[C@@H]([C@@H](C)O)C(=O)N1)[C@@H](C)O)C(=O)N[C@@H](CC(C)C)C(=O)N1CCC[C@H]1C(=O)N1CCC[C@H]1C(=O)N[C@H](C(=O)N1CCC[C@H]1C(=O)N[C@H](C(=O)NCC(=O)N[C@@H](CO)C(=O)N[C@@H](CC(N)=O)C(=O)N[C@H](C(=O)N[C@@H](Cc1ccc(O)cc1)C(N)=O)[C@@H](C)O)C(C)C)[C@@H](C)O` [Peptide 134] (H-K([γGlu-C18 diacid])KCNTATCATQRLANFL[Aib]HSSNNFGPILPPTPVGSNTY-NH2; disulfide 3-8; N-terminus assumed), the concentration giving a half-maximal response (EC50) in assay [1] was found to be 2220 pM. For the same molecule, in assay [2], the “Ratio (selectivity hAMYR vs hCTR, ratio of EC50 values at the two receptors)” value stood at 7.9 and the 50% effective concentration (EC50) is 281 pM.

With `CC[C@H](C)[C@H](NC(=O)[C@@H]1CCCN1C(=O)CNC(=O)[C@H](Cc1ccccc1)NC(=O)[C@H](CC(N)=O)NC(=O)[C@H](CC(N)=O)NC(=O)[C@H](CO)NC(=O)[C@H](CO)NC(=O)[C@H](Cc1c[nH]cn1)NC(=O)C(C)(C)NC(=O)[C@H](CC(C)C)NC(=O)[C@H](Cc1ccccc1)NC(=O)[C@H](CC(N)=O)NC(=O)[C@H](C)NC(=O)[C@H](CC(C)C)NC(=O)[C@H](CCCNC(=N)N)NC(=O)[C@H](CCC(N)=O)NC(=O)[C@@H](NC(=O)[C@H](C)NC(=O)[C@@H]1CSSC[C@H](NC(=O)[C@H](CCCCN)NC(=O)[C@@H](N)CCCCNC(=O)CC[C@H](NC(=O)CCCCCCCCCCCCCCCCC(=O)O)C(=O)O)C(=O)N[C@@H](CC(N)=O)C(=O)N[C@@H]([C@@H](C)O)C(=O)N[C@@H](C)C(=O)N[C@@H]([C@@H](C)O)C(=O)N1)[C@@H](C)O)C(=O)N[C@@H](CC(C)C)C(=O)N1CCC[C@H]1C(=O)N1CCC[C@H]1C(=O)N[C@H](C(=O)NC(C)(C)C(=O)N[C@H](C(=O)NCC(=O)N[C@@H](CO)C(=O)N[C@@H](CC(N)=O)C(=O)N[C@H](C(=O)N[C@@H](Cc1ccc(O)cc1)C(N)=O)[C@@H](C)O)C(C)C)[C@@H](C)O` [Peptide 98, K(γE-C18diacid)K[CNTATC]ATQRLANFL(Aib)HSSNNFGPILPPT(Aib)VGSNTY-amide] (H-K([γGlu-C18 diacid])KCNTATCATQRLANFL[Aib]HSSNNFGPILPPT[Aib]VGSNTY-NH2; disulfide 3-8; N-terminus assumed), the 50% effective concentration (EC50) in assay [1] is 972 pM. In assay [2], the “Ratio (selectivity hAMYR vs hCTR, ratio of EC50 values at the two receptors)” value came to 1 and the concentration giving a half-maximal response (EC50) was determined as 942 pM.
